Measurements as given in patent publication US7652029B2, “Therapeutic compound and treatments” (priority 2004, dated 2010).

What was measured:
K-562 = assay: NCI multiple cell line test (SRB); type: cell-based, human; settings: K-562 (Leukemia), 48 h
HL-60 (TB) = assay: NCI multiple cell line test (SRB); type: cell-based, human; settings: HL-60 (TB) (Leukemia), 48 h
Description: (§1) The NCI tested MT477 60 cell line test, and reported the GI50, TGI, and LC50 values of MT477 for each cell line, reported herein at Table 3.
(§2) Methodology: The NCI conducted a test of the MT477 drug against about 60 human cell lines, with a minimum of five concentrations of MT477 at 10-fold dilutions, with no more than 5(10)^−5 molar of drug being used. A 48 hour continuous drug exposure was used, and a sulforhodamine B (SRB) protein assay was used to estimate cell viability and growth. The human tumor cell lines of the cancer screening panel were grown in RPMI 1640 medium containing 5% fetal bovine serum and 2 mM L-glutamine. Cells were inoculated into 96 well microtiter plates in 100 μL at plating densities ranging from 5,000 to 40,000 cells/well depending on the doubling time of individual cell lines. After cell inoculation, the microtiter plates are incubated at 37° C., 5% CO2, 95% air, and 100% relative humidity for 24 h prior to addition of experimental drugs.
(§3) After 24 h, two plates of each cell line were fixed in situ with TCA, to represent a measurement of the cell population for each cell line at the time of drug addition (Tz). MT477 was solubilized in dimethyl sulfoxide at 400-fold the desired final maximum test concentration and stored frozen prior to use. At the time of drug addition, an aliquot of frozen concentrate was thawed and diluted to twice the desired final maximum test concentration with complete medium containing 50 μg/ml gentamicin. Additional four, 10-fold or ½ log serial dilutions were made to provide a total of five drug concentrations plus control. Aliquots of 100 μl of these different drug dilutions were added to the appropriate microtiter wells already containing 100 μl of medium, resulting in the required final drug concentrations.
(§4) Following drug addition, the plates were incubated for an additional 48 h at 37° C., 5% CO2, 95% air, and 100% relative humidity. For adherent cells, the assay was terminated by the addition of cold TCA. Cells were fixed in situ by the gentle addition of 50 μl of cold 50% (w/v) TCA (final concentration, 10% TCA) and incubated for 60 minutes at 4° C. The supernatant was discarded, and the plates were washed five times with tap water and air dried. Sulforhodamine B (SRB) solution (100 μl) at 0.4% (w/v) in 1% acetic acid was added to each well, and plates were incubated for 10 minutes at room temperature. After staining, unbound dye was removed by washing five times with 1% acetic acid and the plates were air-dried. Bound stain was subsequently solubilized with 10 mM trizma base, and the absorbance was read on an automated plate reader at a wavelength of 515 nm. For suspension cells, the methodology was the same except that the assay was terminated by fixing settled cells at the bottom of the wells by gently adding 50 μl of 80% TCA (final concentration, 16% TCA). Using the seven absorbance measurements (time zero, (Tz), control growth, (C), and test growth in the presence of drug at the five concentration levels (Ti)), the percentage growth was calculated at each of the drug concentrations levels. Percentage growth inhibition was calculated as: [(Ti−Tz)/(C−Tz)]×100 for concentrations for which Ti>/=Tz [(Ti−Tz)/Tz]×100 for concentrations for which Ti<Tz.
(§5) Three dose response parameters were calculated for each experimental agent. Growth inhibition of 50% (GI50) was calculated from [(Ti−Tz)/(C−Tz)]×100=50, which is the drug concentration resulting in a 50% reduction in the net protein increase (as measured by SRB staining) in control cells during the drug incubation. The drug concentration resulting in total growth inhibition (TGI) was calculated from Ti=Tz. The LC50 (concentration of drug resulting in a 50% reduction in the measured protein at the end of the drug treatment as compared to that at the beginning) indicating a net loss of cells following treatment was calculated from [(Ti−Tz)/Tz]×100=−50. […]

M14 = assay: NCI multiple cell line test (SRB); type: cell-based, human; settings: M14 (Melanoma), 48 h
Description: as §1, §2, §3, §4, §5

NCI-H322M = assay: NCI multiple cell line test (SRB); type: cell-based, human; settings: NCI-H322M (Non-Small Cell Lung Cancer), 48 h
Description: as §1, §2, §3, §4, §5

HCT-116 = assay: NCI multiple cell line test (SRB); type: cell-based, human; settings: HCT-116 (Colon Cancer), 48 h
KM12 = assay: NCI multiple cell line test (SRB); type: cell-based, human; settings: KM12 (Colon Cancer), 48 h
LOX IMVI = assay: NCI multiple cell line test (SRB); type: cell-based, human; settings: LOX IMVI (Melanoma), 48 h
UACC-62 = assay: NCI multiple cell line test (SRB); type: cell-based, human; settings: UACC-62 (Melanoma), 48 h
IGROV1 = assay: NCI multiple cell line test (SRB); type: cell-based, human; settings: IGROV1 (Ovarian Cancer), 48 h
CAKI-1 = assay: NCI multiple cell line test (SRB); type: cell-based, human; settings: CAKI-1 (Renal Cancer), 48 h
UO-31 = assay: NCI multiple cell line test (SRB); type: cell-based, human; settings: UO-31 (Renal Cancer), 48 h
[1] = tested on: normal human lung fibroblasts; assay: Growth response, MTT dye conversion assay; type: cell-based; settings: compared with cisplatin
SCK cells = assay: Growth response, MTT dye conversion assay; type: cell-based, murine; settings: FIG. 8; 48 hours; compared with cisplatin
ACHN cells = assay: Growth response, MTT dye conversion assay; type: cell-based, human; settings: low doses (FIG. 14 as printed)
[2] = Homo sapiens, read-out: −log10GI50 (converted)

Q: How did the IC50 (K-562; Homo sapiens, K562, read-out: −log10GI50 (converted)) turn out when COC(=O)C1=C(C(=O)OC)SC2(S1)C(C(=O)OC)=C(C(=O)OC)SC1=C2c2cccc(OC)c2N(C(=O)CN2C(=O)CCC2=O)C1(C)C [MT477] was run?
A: 1620 nM

Q: What about the “−log10LC50” value (K-562) of the same compound?
A: * (effect not reached at maximum dose of 0.05 millimolar)

Q: And the “−log10TGI” value (K-562)?
A: 4.99 molar

Q: What about the “−log10LC50” value (HL-60 (TB)) of the same compound?
A: * (effect not reached at maximum dose of 0.05 millimolar)

Q: What about the “−log10TGI” value (HL-60 (TB)) of the same compound?
A: 4.83 molar

Q: What about the IC50 (HL-60 (TB); [2]) of the same compound?
A: 2190 nM

Q: And the “−log10GI50” value (M14)?
A: 602 molar

Q: What about the IC50 (NCI-H322M; [2]) of the same compound?
A: 6460 nM

Q: And the “−log10TGI” value (NCI-H322M)?
A: 4.87 molar

Q: What about the “−log10LC50” value (HCT-116) of the same compound?
A: 5.48 molar

Q: What about the “−log10TGI” value (HCT-116) of the same compound?
A: 5.75 molar

Q: What about the IC50 (HCT-116; [2]) of the same compound?
A: 955 nM

Q: And the IC50 (KM12; [2])?
A: 2290 nM

Q: And the “−log10LC50” value (KM12)?
A: * (effect not reached at maximum dose of 0.05 millimolar)

Q: What about the “−log10TGI” value (KM12) of the same compound?
A: * (effect not reached at maximum dose of 0.05 millimolar)

Q: What about the IC50 (LOX IMVI; [2]) of the same compound?
A: 851 nM

Q: What about the “−log10LC50” value (LOX IMVI) of the same compound?
A: 5.52 molar

Q: And the “−log10TGI” value (LOX IMVI)?
A: 5.79 molar

Q: What about the IC50 (UACC-62; [2]) of the same compound?
A: 1170 nM

Q: And the “−log10LC50” value (UACC-62)?
A: 5.03 molar

Q: What about the “−log10TGI” value (UACC-62) of the same compound?
A: 5.55 molar

Q: What about the IC50 (IGROV1; Homo sapiens, IGROV-1, read-out: −log10GI50 (converted)) of the same compound?
A: 17800 nM

Q: And the “−log10LC50” value (IGROV1)?
A: * (effect not reached at maximum dose of 0.05 millimolar)

Q: What about the “−log10TGI” value (IGROV1) of the same compound?
A: 4.3 molar

Q: What about the “−log10LC50” value (CAKI-1) of the same compound?
A: 4.48 molar

Q: And the “−log10TGI” value (CAKI-1)?
A: 4.83 molar

Q: And the IC50 (CAKI-1; [2])?
A: 6610 nM

Q: What about the IC50 (UO-31; [2]) of the same compound?
A: 3390 nM

Q: What about the “−log10LC50” value (UO-31) of the same compound?
A: * (effect not reached at maximum dose of 0.05 millimolar)

Q: What about the “−log10TGI” value (UO-31) of the same compound?
A: 4.81 molar

Q: And the growth response ([1]; FIG. 10, normal human lung cells at 24 and 48 hours)?
A: more effective than cisplatin

Q: What about the “cytotoxicity profile (growth response)” value ([1]; FIGS. 1 and 2, 48 hours) of the same compound?
A: cytotoxicity profile that is similar to cisplatin

Q: What about the growth response (SCK cells) of the same compound?
A: more effective than cisplatin

Q: And the “growth response at low concentrations” value (ACHN cells)?
A: effective even at very low doses, including micromolar dosages
